Reference: patent US7563921B2, “2-cyano-3(halo)alkoxy-benzenesulfonamide compounds for combating animal pests” (BASF Aktiengesellschaft, priority 2004, dated 2009)

What was measured:
[1] = tested on: Green Peach Aphid (Myzus persicae); assay: Green Peach Aphid foliar dip test on pepper plants; type: in vivo; conditions: 120 h, pepper plant leaves dipped, aphid mortality after 5 days, read-out: mortality in comparison with untreated controls
Source text: Green Peach Aphid (Myzus persicae)
(§1) The active compounds were formulated in 50:50 acetone:water and 100 ppm Kinetic® surfactant.
Pepper plants in the 2nd leaf-pair stage (variety ‘California Wonder’) were infested with approximately 40 laboratory-reared aphids by placing infested leaf sections on top of the test plants. The leaf sections were removed after 24 hr. The leaves of the intact plants were dipped into gradient solutions of the test compound and allowed to dry. Test plants were maintained under fluorescent light (24 hour photoperiod) at about 25° C. and 20-40% relative humidity. Aphid mortality on the treated plants, relative to mortality on check plants, was determined after 5 days.

[2] = tested on: Cotton Aphid (Aphis gossypii); assay: Cotton Aphid cotyledon dip test on cotton plants; type: in vivo; conditions: 120 h, cotton cotyledons dipped, mortality counts after 5 days, read-out: mortality in comparison with untreated controls
Source text: Cotton Aphid (Aphis gossypii)
as §1
Cotton plants in the cotyledon stage (variety ‘Delta Pine’, one plant per pot) were infested by placing a heavily infested leaf from the main colony on top of each cotyledons. The aphids were allowed to transfer to the host plant overnight, and the leaf used to transfer the aphids was removed. The cotyledons were dipped in the test solution and allowed to dry. After 5 days, mortality counts were made.

[3] = tested on: Bean Aphid (Aphis fabae); assay: Bean Aphid plant dip test on nasturtium plants; type: in vivo; conditions: 72 h, nasturtium plants dipped, aphid mortality after 3 days, read-out: mortality in comparison with untreated controls
Source text: as §1
Nasturtium plants grown in Metro mix in the 1st leaf-pair stage (variety ‘Mixed Jewel’) were infested with approximately 20-30 laboratory-reared aphids by placing infested cut plants on top of the test plants. The cut plants were removed after 24 hr. Each plant was dipped into the test solution to provide complete coverage of the foliage, stem, protruding seed surface and surrounding cube surface and allowed to dry in the fume hood. The treated plants were kept at about 25° C. with continuous fluorescent light. Aphid mortality is determined after 3 days.

[4] = tested on: cotton aphids (Aphis gossypil); assay: Cotton seed treatment, control of foliar aphids; type: in vivo, Aphis gossypii; conditions: live aphids counted four days after infestation, versus solvent blank controls
Experimental: Experimental compound no. 1 (N,N-Dimethyl-2-cyano-3-difluoromethoxyphenylsulfonamide) was evaluated to determine their insecticidal efficacy for control of foliar aphids when applied as seed treatment.
Experimental compound no. 1 was formulated by dissolving 10.5 mg technical material in 45 μl acetone then adding 255 μl 0.05% aqueous TWEEN 20 (polyoxyethylene (20) sorbitan monolaurate).
Twenty-five cotton seeds (variety Sure-Grow 747) were placed in a 20-ml glass vial and then 150 μl of the compound formulation were pipetted onto the side of the vial just above the seeds. Vials were vortexed for 30 seconds to rapidly spin the seeds within the vial to apply the compound to the seeds. Treated seeds were then air-dried. […]
Twenty-four cotton seeds were planted in Metro Mix potting mix in twelve 7.6-cm-square pots, 2 seeds per pot. Crop selectivity was determined by comparing seedling emergence and recording any foliar and shoot symptoms.
Seedling plants were thinned to one plant per pot. […] The exact number of aphids transferred to each plant was recorded.
Four days after infestation, live aphids on each plant were counted. The aphid population increase for each control plant was calculated by dividing the final aphid population by the initial population. The median aphid population increase on the solvent blank controls was then calculated. […]

Row | Compound | mortality at 300 ppm [1] [%] | mortality at 300 ppm [2] [%] | mortality at 300 ppm [3] [%] | reduction of the aphid population [4]
1 | COc1cccc(S(=O)(=O)N(C)C)c1C#N [Compound 2, N,N-Dimethyl-2-cyano-3-methoxyphenylsulfonamide] | > 85 | > 85 | > 85 | 
2 | CN(C)S(=O)(=O)c1cccc(OC(F)F)c1C#N [Compound 1, N,N-Dimethyl-2-cyano-3-difluoromethoxyphenylsulfonamide] | > 85 | > 85 | > 85 | significant reduction of the aphid population
